Activity calls are given as the source filed them. The calls are words filed in the database; no cut-off is given here.
Tests used:
Rattus norvegicus [1] = assay: Inhibition of peripheral COMT in Wistar rat liver homogenates assessed as metanephrine formation at 3 mg/kg, po measured after 24 hrs; format: functional
[2] = Cytotoxicity against mouse Neuro2a cells assessed as cell viability at 30 uM after 24 hrs; format: functional; details: N2a, read-out: Activity
Rattus norvegicus [3] = assay: Inhibition of COMT in Wistar rat plasma assessed as decrease in 3-O-methyl-L-Dopa level at 3 mg/kg, po co-administered with L-dopa and benserazide measured after 24 hrs by HPLC analysis; format: functional, organism-based; set-up: dose 3 mg/kg
Rattus norvegicus [4] = assay: Inhibition of central COMT in Wistar rat brain homogenates assessed as metanephrine formation at 3 mg/kg, po measured up to 24 hrs
Rattus norvegicus [5] = assay: Inhibition of COMT in po dosed Wistar rat liver homogenates assessed as metanephrine formation measured up to 3 hrs relative to control; format: functional
Rattus norvegicus [6] = assay: Inhibition of central COMT in Wistar rat brain homogenates assessed as metanephrine formation at 3 mg/kg, po measured up to 24 hrs; format: functional, organism-based; set-up: dose 3 mg/kg
Rattus norvegicus [7] = assay: Inhibition of peripheral COMT in Wistar rat brain homogenates assessed as metanephrine formation at 3 mg/kg, po measured after 24 hrs; format: functional; details: Liver, in the assay text read “rat liver homogenates” for “rat brain homogenates”
Rattus norvegicus [8] = assay: Inhibition of COMT in Wistar rat plasma assessed as decrease in 3-O-methyl-L-Dopa level at 3 mg/kg, po co-administered with L-dopa and benserazide measured after 2 hrs by HPLC analysis relative to control; format: functional
Rattus norvegicus [9] = assay: Inhibition of COMT in Wistar rat liver homogenates assessed as metanephrine formation at 3 mg/kg, po measured after 1 hr; format: functional, organism-based; set-up: dose 3 mg/kg
Rattus norvegicus [10] = assay: Inhibition of COMT in Wistar rat plasma assessed as increase L-DOPA level at 3 mg/kg, po co-administered with L-dopa and benserazide measured after 2 hrs by HPLC analysis; format: functional
Rattus norvegicus [11] = assay: Inhibition of COMT in Wistar rat liver homogenates assessed as metanephrine formation at 3 mg/kg, po measured after 3 hrs; format: functional, organism-based; set-up: dose 3 mg/kg
Rattus norvegicus [12] = assay: Inhibition of COMT in Wistar rat liver homogenates assessed as metanephrine formation at 3 mg/kg, po measured after 3 hrs relative to control; values are per cent of control
Rattus norvegicus [13] = assay: Inhibition of COMT in Wistar rat plasma assessed as decrease in 3-O-methyl-L-Dopa level at 3 mg/kg, po co-administered with L-dopa and benserazide measured after 7 hrs by HPLC analysis; format: functional, organism-based; set-up: dose 3 mg/kg
Rattus norvegicus [14] = assay: Inhibition of COMT in Wistar rat plasma assessed as decrease in 3-O-methyl-L-Dopa level at 3 mg/kg, po co-administered with L-dopa and benserazide measured after 2 hrs by HPLC analysis; format: functional, organism-based; set-up: dose 3 mg/kg
Rattus norvegicus [15] = species: Rattus norvegicus; details: Wistar, Liver, 3 mg/kg
Mus musculus [16] = assay: Inhibition of COMT in NMRI mouse liver homogenates assessed as metanephrine formation at 3 mg/kg, po measured after 3 hrs relative to control; values are per cent of control
Rattus norvegicus [17] = assay: Inhibition of peripheral COMT in Wistar rat liver homogenates assessed as metanephrine formation at 3 mg/kg, po measured after 9 hrs
Rattus norvegicus [18] = assay: Inhibition of central COMT in Wistar rat liver homogenates assessed as metanephrine formation at 3 mg/kg, po measured after 9 hrs; format: functional; details: Brain, in the assay text read “rat brain homogenates” for “rat liver homogenates”
Rattus norvegicus [19] = assay: Inhibition of COMT in Wistar rat plasma assessed as increase L-DOPA level at 3 mg/kg, po co-administered with L-dopa and benserazide measured after 24 hrs by HPLC analysis; format: functional, organism-based; set-up: dose 3 mg/kg
Mus musculus [20] = assay: Inhibition of COMT in NMRI mouse liver homogenates assessed as metanephrine formation at 30 mg/kg, po measured after 6 hrs relative to control; values are per cent of control
Rattus norvegicus [21] = assay: Inhibition of COMT in Wistar rat brain homogenates assessed as metanephrine formation at 3 mg/kg, po measured after 1 hr; format: functional, organism-based; set-up: dose 3 mg/kg
Rattus norvegicus [22] = assay: Inhibition of COMT in Wistar rat plasma assessed as increase L-DOPA level at 3 mg/kg, po co-administered with L-dopa and benserazide measured after 7 hrs by HPLC analysis; format: functional
Rattus norvegicus [23] = assay: Inhibition of central COMT in Wistar rat brain homogenates assessed as metanephrine formation at 3 mg/kg, po measured after 9 hrs; format: functional
Rattus norvegicus [24] = assay: Inhibition of COMT in Wistar rat brain homogenates assessed as metanephrine formation at 3 mg/kg, po measured after 3 hrs; format: functional, organism-based; set-up: dose 3 mg/kg

Structure (SMILES): Cc1c(Cl)c(C)[n+]([O-])c(Cl)c1-c1noc(-c2cc(O)c(O)c([N+](=O)[O-])c2)n1 [OPICAPONE]
- inhibition in vivo at 3 mg/kg (Rattus norvegicus [1]): 50%
- viability at 30 µM [2]: 86.6%
- inhibition (Rattus norvegicus [3]): Active
- inhibition (Rattus norvegicus [4]): inactive
- ED50 (Rattus norvegicus [5]): 1.05 mg/kg
- inhibition (Rattus norvegicus [6]): inactive
- inhibition in vivo at 3 mg/kg (Rattus norvegicus [7]): 50%
- inhibition in vivo at 3 mg/kg (Rattus norvegicus [8]): 50%
- inhibition (Rattus norvegicus [9]): Active
- fold change (FC) (Rattus norvegicus [10]): 2
- inhibition (Rattus norvegicus [11]): Active
- level, % of control at 3 mg/kg (Rattus norvegicus [12]): 0.7%

Structure (SMILES): Cc1ccc(C(=O)c2cc(O)c(O)c([N+](=O)[O-])c2)cc1 [TOLCAPONE]
- inhibition (Rattus norvegicus [13]): Active
- viability at 30 µM [2]: 27.2%
- inhibition (Rattus norvegicus [14]): Active
- inhibition (Rattus norvegicus [15]): inactive
- level, % of control at 3 mg/kg (Mus musculus [16]): 15.1%
- inhibition (Rattus norvegicus [17]): inactive
- ED50 (Rattus norvegicus [5]): 1.77 mg/kg
- inhibition in vivo at 3 mg/kg (Rattus norvegicus [18]): 50%
- inhibition (Rattus norvegicus [19]): inactive
- level, % of control at 30 mg/kg (Mus musculus [20]): 6.8%
- Activity (Rattus norvegicus [9]): Active
- fold change (FC) (Rattus norvegicus [10]): 3
- inhibition (Rattus norvegicus [11]): Active
- inhibition (Rattus norvegicus [21]): Active
- level, % of control at 3 mg/kg (Rattus norvegicus [12]): 23.8%
- fold change (FC) (Rattus norvegicus [22]): 2
- inhibition in vivo at 3 mg/kg (Rattus norvegicus [23]): 50%
- inhibition (Rattus norvegicus [24]): Active

— ChEMBL document CHEMBL1156193, “Discovery of a long-acting, peripherally selective inhibitor of catechol-O-methyltransferase” (2010)
